We go through 22 molecules from PubChem BioAssay AID332 (DTP/NCI, 2004).

Several values for one entry are separate records, joined by “and”; a condition that tells them apart may be missing. Equal values may be shown once. Inconclusive results are not listed.

The assay relates to mice, ADJ-PC-20 plasma cell tumor sc, T/C %. Put plainly: NCI In Vivo Anticancer Drug Screen. Data for tumor model ADJ-PC-20 Plasma Cell (subcutaneous) in unknown mice. As to conditions: endpoint: mean tumor weight, higher = larger tumour. The protocol:
The antitumor activity of compounds was measured in mice bearing transplantable tumors. Survival or tumor size were measured and the results are expressed as the measurement made in the treated group (T) divided by the measurement made in the vehicle treated control group (C). The tumor model used in this assay is ADJ-PC-20 Plasma Cell (subcutaneous) in unknown mice

Setting [1] is: dose: 7.5 mg/kg/injection, schedule: Q01DX010 (ip), vehicle: carboxymethylcellulose (CMC).
Where [2] appears, read: dose: 1.25 mg/kg/injection, schedule: Q01DX010 (ip), vehicle: saline.
Where [3] appears, read: dose: 12.5 mg/kg/injection, schedule: Q01DX010 (ip), vehicle: carboxymethylcellulose (CMC).
Setting [4] is: dose: 25.0 mg/kg/injection, schedule: Q01DX010 (ip), vehicle: carboxymethylcellulose (CMC).
Setting [5] is: dose: 50.0 mg/kg/injection, schedule: Q01DX010 (ip), vehicle: carboxymethylcellulose (CMC).
Setting [6] is: dose: 31.25 mg/kg/injection, schedule: Q01DX010 (ip), vehicle: carboxymethylcellulose (CMC).
[7] abbreviates: dose: 62.5 mg/kg/injection, schedule: Q01DX010 (ip), vehicle: carboxymethylcellulose (CMC).
Where [8] appears, read: dose: 125.0 mg/kg/injection, schedule: Q01DX010 (ip), vehicle: carboxymethylcellulose (CMC).
Setting [9] is: dose: 500.0 mg/kg/injection, schedule: Q01DX010 (ip), vehicle: carboxymethylcellulose (CMC).
Where [10] appears, read: dose: 1000.0 mg/kg/injection, schedule: Q01DX010 (ip), vehicle: carboxymethylcellulose (CMC).
Where [11] appears, read: dose: 0.63 mg/kg/injection, schedule: Q01DX010 (ip), vehicle: carboxymethylcellulose (CMC).
[12] abbreviates: dose: 1.25 mg/kg/injection, schedule: Q01DX010 (ip), vehicle: carboxymethylcellulose (CMC).
The mark [13] stands for this setting: dose: 250.0 mg/kg/injection, schedule: Q01DX010 (ip), vehicle: carboxymethylcellulose (CMC).

Turning to `Cc1cc(N(CCCl)CCCl)ccc1N=Nc1ccccc1C(=O)O`, the T/C (dose: 0.95 mg/kg/injection, schedule: Q01DX010 (ip), vehicle: carboxymethylcellulose (CMC)) is 60 % of control; the T/C (dose: 1.9 mg/kg/injection, schedule: Q01DX010 (ip), vehicle: carboxymethylcellulose (CMC)) was 56 % of control; the T/C (dose: 3.8 mg/kg/injection, schedule: Q01DX010 (ip), vehicle: carboxymethylcellulose (CMC)) is 38 % of control; the T/C under setting [1] is 25 % of control.

With `NC(=O)c1ccc(N)nc1`, the T/C is, setting by setting: (dose: 0.63 mg/kg/injection, schedule: Q01DX010 (ip), vehicle: saline) 69 % of control; under setting [2], 52 % of control; (dose: 1.25 mg/kg/injection, schedule: Q01DX010 (ip), vehicle: water) 35 % of control; (dose: 2.5 mg/kg/injection, schedule: Q01DX010 (ip), vehicle: water) 18 % of control.

On to `CC(=O)Nc1ccc2nc3ccc(NC(C)=O)cc3[n+](-c3ccccc3)c2c1`, for which the T/C runs as follows: under setting [3], 65 % of control; under setting [4], 76 % of control; under setting [5], 77 % of control.

With `Clc1ccc(C(c2ccccc2Cl)C(Cl)Cl)cc1` (stereo not drawn), the T/C (dose: 25.0 mg/kg/injection, schedule: Q01DX010 (sc), vehicle: steriod suspending solution) is 66 % of control; the T/C (dose: 50.0 mg/kg/injection, schedule: Q01DX010 (sc), vehicle: steriod suspending solution) was 60 % of control; the T/C (dose: 200.0 mg/kg/injection, schedule: Q01DX010 (sc), vehicle: steriod suspending solution) is 86 % of control and 100 % of control and 109 % of control; the T/C (dose: 400.0 mg/kg/injection, schedule: Q01DX010 (sc), vehicle: steriod suspending solution) is 92 % of control; the T/C (dose: 800.0 mg/kg/injection, schedule: Q01DX010 (sc), vehicle: steriod suspending solution) is 73 % of control.

In the case of `O=c1[nH]c(=O)n(C2CC(O)C(CO)O2)cc1Br` (stereo not drawn), the T/C reads like this: under setting [6], 80 % of control; under setting [7], 86 % of control; under setting [8], 74 % of control; under setting [9], 88 % of control; under setting [10], 74 % of control.

In the case of `COC(=O)c1nc(-c2ccc3c(n2)C(=O)C(N)=C(OC)C3=O)c(N)c(-c2ccc(OC)c(OC)c2O)c1C`, the T/C is 71 % of control (dose: 0.35 mg/kg/injection, schedule: Q01DX010 (ip), vehicle: other); 60 % of control (dose: 0.65 mg/kg/injection, schedule: Q01DX010 (ip), vehicle: other); 32 % of control (dose: 1.08 mg/kg/injection, schedule: Q01DX010 (ip), vehicle: other); 4 % of control (dose: 1.8 mg/kg/injection, schedule: Q01DX010 (ip), vehicle: other).

With `NC(Cc1ccc(N(CCCl)CCCl)cc1)C(=O)O` (stereo not drawn), the T/C is 99 % of control (dose: 0.08 mg/kg/injection, schedule: Q01DX010 (ip), vehicle: carboxymethylcellulose (CMC)); 107 % of control (dose: 0.16 mg/kg/injection, schedule: Q01DX010 (ip), vehicle: carboxymethylcellulose (CMC)); 79 % of control under setting [11]; 9 % of control under setting [12].

For the molecule `O=c1[nH]c(=O)n(C2CC(O)C(CO)O2)cc1I` (stereo not drawn), the T/C by setting is: under setting [6], 49 % of control; under setting [7], 77 % of control; under setting [8], 32 % of control; under setting [13], 11 % of control.

For `O=CCC(O)C(O)C(O)CO` (stereo not drawn), the T/C reads like this: under setting [7], 110 % of control; under setting [8], 115 % of control; under setting [13], 117 % of control; under setting [9], 80 % of control; under setting [10], 96 % of control; (dose: 2000.0 mg/kg/injection, schedule: Q01DX010 (ip), vehicle: carboxymethylcellulose (CMC)) 94 % of control.

In the case of `C[C@H]1C(=O)O[C@@H]2CCN3CC=C(COC(=O)[C@](C)(O)[C@@]1(C)O)[C@H]23`, the T/C was 86 % of control (dose: 3.75 mg/kg/injection, schedule: Q01DX010 (ip), vehicle: carboxymethylcellulose (CMC)); 56 % of control under setting [1]; 30 % of control (dose: 15.0 mg/kg/injection, schedule: Q01DX010 (ip), vehicle: carboxymethylcellulose (CMC)); 36 % of control and 44 % of control (dose: 30.0 mg/kg/injection, schedule: Q01DX010 (ip), vehicle: carboxymethylcellulose (CMC)); 6 % of control and 17 % of control (dose: 60.0 mg/kg/injection, schedule: Q01DX010 (ip), vehicle: carboxymethylcellulose (CMC)).

For `CN(C)c1ccc(/C=C/c2ccnc3ccccc23)cc1`, the T/C (dose: 2.0 mg/kg/injection, schedule: Q01DX010 (ip), vehicle: carboxymethylcellulose (CMC)) was 117 % of control; the T/C (dose: 4.0 mg/kg/injection, schedule: Q01DX010 (ip), vehicle: water) was 81 % of control; the T/C (dose: 16.0 mg/kg/injection, schedule: Q01DX010 (ip), vehicle: carboxymethylcellulose (CMC)) is 89 % of control and 99 % of control; the T/C (dose: 16.0 mg/kg/injection, schedule: Q01DX010 (ip), vehicle: water) is 78 % of control; the T/C (dose: 32.0 mg/kg/injection, schedule: Q01DX010 (ip), vehicle: carboxymethylcellulose (CMC)) was 28 % of control.

As for `Nc1nc(SCc2ccccc2)c2[nH]cnc2n1`, the T/C is 94 % of control (dose: 0.3 mg/kg/injection, schedule: Q01DX010 (ip), vehicle: carboxymethylcellulose (CMC)); 81 % of control (dose: 1.2 mg/kg/injection, schedule: Q01DX010 (ip), vehicle: carboxymethylcellulose (CMC)); 119 % of control (dose: 2.4 mg/kg/injection, schedule: Q01DX010 (ip), vehicle: carboxymethylcellulose (CMC)); 9 % of control (dose: 4.7 mg/kg/injection, schedule: Q01DX010 (ip), vehicle: carboxymethylcellulose (CMC)).

Consider `OCC1OC(n2cnc3c(Cl)ncnc32)C(O)C1O` (stereo not drawn), for which the T/C under setting [8] was 100 % of control, the T/C under setting [13] is 107 % of control, the T/C under setting [9] is 93 % of control and the T/C under setting [10] is 35 % of control.

With `Nc1nc(N)c2nc(CNc3ccc(C(=O)NC(CCC(=O)O)C(=O)O)cc3)cnc2n1` (stereo not drawn), the T/C runs as follows: (dose: 63.0 micrograms/kg/injection, schedule: Q01DX010 (ip), vehicle: alkali diluted with saline) 86 % of control; (dose: 125.0 micrograms/kg/injection, schedule: Q01DX010 (ip), vehicle: alkali diluted with saline) 82 % of control.

In the case of `CCCCNc1ncnc2c1cnn2C`, the T/C was 94 % of control (dose: 3.1 mg/kg/injection, schedule: Q01DX010 (ip), vehicle: carboxymethylcellulose (CMC)); 122 % of control under setting [3]; 96 % of control under setting [4]; 109 % of control under setting [5].

For `O=c1cn[nH]c(=O)[nH]1`, the T/C under setting [8] is 75 % of control, the T/C under setting [13] is 64 % of control, the T/C under setting [9] is 66 % of control and the T/C under setting [10] is 38 % of control.

`COC12C(COC(N)=O)C3=C(C(=O)C(C)=C(N)C3=O)N1CC1C2N1C` (stereo not drawn): the T/C was 81 % of control under setting [11]; 43 % of control under setting [12]; 13 % of control (dose: 2.5 mg/kg/injection, schedule: Q01DX010 (ip), vehicle: carboxymethylcellulose (CMC)).

Consider `CN(C)c1ccc(Nc2c3ccccc3nc3ccccc23)cc1`, for which the T/C is, setting by setting: (dose: 6.25 mg/kg/injection, schedule: Q01DX010 (ip), vehicle: carboxymethylcellulose (CMC)) 88 % of control; under setting [4], 115 % of control; (dose: 100.0 mg/kg/injection, schedule: Q01DX010 (ip), vehicle: carboxymethylcellulose (CMC)) 67 % of control.

Regarding `NC(=O)N(CCCl)N=O`, the T/C (dose: 1.75 mg/kg/injection, schedule: Q01DX010 (ip), vehicle: carboxymethylcellulose (CMC)) is 93 % of control; the T/C (dose: 3.5 mg/kg/injection, schedule: Q01DX010 (ip), vehicle: carboxymethylcellulose (CMC)) was 105 % of control; the T/C (dose: 7.0 mg/kg/injection, schedule: Q01DX010 (ip), vehicle: carboxymethylcellulose (CMC)) was 102 % of control.

As for `N=[N+]=CC(=O)OCC(N)C(=O)O` (stereo not drawn), the T/C under setting [2] was 120 % of control and the T/C (dose: 5.0 mg/kg/injection, schedule: Q01DX010 (ip), vehicle: saline) is 93 % of control.

Regarding `CCOC(=O)NP(=O)(N1CC1(C)C)N1CC1(C)C` (stereo not drawn), the T/C reads like this: under setting [8], 68 % of control; under setting [13], 20 % of control.

As for `COc1cc2c(c(OC)c1OC)-c1ccc(OC)c(=O)cc1[C@@H](NC(C)=O)CC2`, the T/C by setting is: (dose: 8.0 micrograms/kg/injection, schedule: Q01DX010 (ip), vehicle: saline) 99 % of control; (dose: 16.0 micrograms/kg/injection, schedule: Q01DX010 (ip), vehicle: saline) 114 % of control; (dose: 31.0 micrograms/kg/injection, schedule: Q01DX010 (ip), vehicle: saline) 105 % of control.
